Experimental data published in PubChem BioAssay AID179 (DTP/NCI, 2004).
Several values for one entry are separate records, joined by “and”; a condition that tells them apart may be missing. Equal entries are not always repeated. Activity calls are given as the source filed them.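 Rule for the calls: active = compounds giving half or more protection of infected cells from virus-caused growth loss, again on retest; inactive = the rest.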

System: CEM cells HIV-1 protection, formazan growth assay
Experiment: NCI AIDS Antiviral Assay
Settings: for IC50: measured here: growth of uninfected CEM cells
Method in brief: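 Category rules: moderately active means at least 50% protection on retest, and confirmed active means 100% protection reproducibly. The underlying data came from a formazan growth assay in HIV-1-infected CEM cells.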

Compound	EC50 [µM]	IC50	outcome
Cn1c(C(=O)/C=C/c2ccc([N+](=O)[O-])cc2)nc2ccccc21	> 200	33.1 µM	–
CC1=C(C(=O)Nc2cc(=O)n(C)c(=O)n2C)C(c2ccco2)C(C(=O)Nc2cc(=O)n(C)c(=O)n2C)=C(C)N1	> 93.3	> 93.3 µM	–
COC1CC(N)C(O)C(CN=[N+]=[N-])O1 (centres undefined)	–	–	inactive
CCCCCCCCCCCCC1=C(OC)C(=O)c2ccc(C)nc2C1=O	–	–	inactive
CC(NC1=NCCO1)c1ccccc1Cl (centres undefined)	–	–	inactive
CCCCCCCC(=O)OCC1OC(n2cc(F)c(=O)[nH]c2=O)C(NC(=O)OCc2ccccc2)C(OC(=O)CCCCCCC)C1O (centres undefined)	> 10.7	> 10.7 µM	–
Brc1ccc(C2CC(c3cccc4ccccc34)=Nc3ccccc3S2)cc1 (centres undefined)	> 11.7	> 11.7 µM	–
S=C1Cc2[nH]c(=S)sc(=S)c2C(=S)N1	> 64.6	57.5 µM	–
CCCn1c(=O)c(N2CCN(c3ccccc3)CC2)nc2sc3ccccc3c21	> 200	> 200 µM	–
COC1=CC(=O)C=C(CO)C1=O	> 562	10 µM	–
Clc1ccc(-c2cc[s+]s2)cc1	> 200	33.1 µM	–
Cc1cc(Nc2ccc(S(=O)(=O)O)c3cc(S(=O)(=O)O)cc(S(=O)(=O)O)c23)c2ccccc2n1	> 200	> 200 µM	–
CCCC=NCCOC(=S)[S-].CCCC=NCCOC(=S)[S-].[Zn+2]	> 100	56.2 µM	–
O=C(O)CN1CCNCCN(CC(=O)O)CC1	> 100	9.77 µM	–
Nc1c(Cl)cccc1-c1c[nH]c(Cl)c1Cl	> 138	72.4 µM	–
COC(=O)C(=O)C(C(=O)C=C(C)C)C(=O)C(=O)Nc1nc2ccc([N+](=O)[O-])cc2s1 (centres undefined)	> 60.3	> 60.3 µM	–
Cc1cc(NC(=O)Nc2ccc(N=Nc3cc(S(=O)(=O)[O-])c4cccc(S(=O)(=O)[O-])c4c3)c(C)c2)ccc1N=Nc1cc(S(=O)(=O)[O-])c2cccc(S(=O)(=O)[O-])c2c1.[Ga]	> 75.9	13.5 µM	–
CCCCCCCCCCCCCCCCSS(=O)(=O)CCCCCCCC	> 74.1	> 74.1 µM	–
CCCC(Sc1ccccc1)P(=O)(c1ccccc1)c1ccccc1 (centres undefined)	–	–	inactive
CSc1nc2c(=O)n(-c3ccccc3)c(=S)n(-c3ccccc3)c2s1	> 200	117 µM	–
Cn1c2ccccc2c(=O)c2c(O)cc3c(c21)CC(C1(C)CO1)O3 (centres undefined)	> 6.17	0.209 µM	–
FC(F)C(F)(F)C(F)(F)C(F)(F)C(F)(F)C(F)(F)COC(OCC(F)(F)C(F)(F)C(F)(F)C(F)(F)C(F)(F)C(F)F)OCC(F)(F)C(F)(F)C(F)(F)C(F)(F)C(F)(F)C(F)F	> 200	> 200 µM	–

Compound	EC50 [µM]	IC50	outcome
CCN(CC)CCNC(=O)c1cn2c(ccc3sc4ccccc4c(=O)c32)n1	> 20	1.1 µM	–
Cn1ccnc1CCc1ccc(Cl)c(Cl)c1	> 851	97.7 µM	–
N#Cc1c(-c2ccccc2)c(C#N)c(=S)n(C2OCC(O)C(O)C2O)c1N (centres undefined)	> 200	195 µM and > 200 µM	–
COC(=O)C(/C(=N/NC(N)=O)C(=O)Nc1c(C)cccc1C(C)(C)C)c1nc2ccc(Cl)cc2[nH]c1=O (centres undefined)	–	–	inactive
O=C1NC2CCC(C2)C1c1ccccc1 (centres undefined)	–	–	inactive
C=C(C)CCC(=O)[C@](C)(O)[C@H]1[C@H](O)C[C@@]2(C)[C@@H]3CCc4c(cc(OC5OC(CO)C(O)C(O)C5O)c(O)c4C)C3(C)C(=O)C[C@]12C (some centres undefined)	> 200	> 200 µM	–
COC(=O)/C=C1/N=C(N(C)/N=C/c2ccccc2)NC1=O	> 200	> 200 µM	–
COc1cc2c(cc1OC)C1c3ccccc3CCN1CCC2 (centres undefined)	> 200	> 200 µM	–
N#CC(=N)c1ncn(-c2ccc(N)cc2)c1N	> 200	195 µM	–
Cc1cc2c(cc1C)NC1=C(N2)OC(c2ccccc2C)C1=O (centres undefined)	> 81.3	> 81.3 µM	–
O=C(Cc1csc(-c2nc(CC(=O)NNc3ccccc3)cs2)n1)NNc1ccccc1	> 145	> 145 µM	–
O=C(C=Nc1ccccc1C(=O)[O-])c1cccs1.O=C(C=Nc1ccccc1C(=O)[O-])c1cccs1.[Ni+2]	–	–	inactive
CN(C)CCNC(=O)c1cccc(C(=O)Nc2ccccc2)c1[N+](=O)[O-]	> 200	> 200 µM	–
N#CCCN(c1ccc(/C=N/c2nc(-c3ccccc3)cs2)cc1)S(=O)(=O)c1ccccc1	> 55	> 55 µM	–
Cc1ccc(/C(O)=C/c2nc3ccccc3s/c2=N/CS(=O)(=O)c2ccc(C)cc2)cc1	> 200	> 200 µM	–
CC(=O)O[C@]12CCC[C@H]1C1(O)C(O)CCC[C@H]12 (some centres undefined)	> 200	> 200 µM	–
c1ccc2c(c1)[nH]c1scc[n+]12	–	–	inactive
Cc1ccc(NC(=S)NNC(=O)c2cc(-c3ccccc3)nc3ccccc23)cc1	> 200	12.9 µM	–
CCn1c(O)c(C=Nc2ccccc2)s/c1=N/Nc1nc(C)cs1	> 200	174 µM	–
COC(=O)c1ccc(CSc2ccc(Cl)cc2)cc1	> 4.9	3.55 µM	–
CN=c1ss/c(=N\C(=S)N(C)C)n1C	–	–	inactive
COC(=O)C1(Cc2ccccc2)Cc2cc3c(cc2C1O)CCC3 (centres undefined)	> 200	24 µM	–

Compound	EC50 [µM]	IC50	outcome
N#CC1=C(c2ccccc2)OC2(N)OC(c3ccccc3)=C(C#N)C12C#N (centres undefined)	–	–	inactive
CCN(CC)P(=O)(c1ccc2c(c1)OCCOCCOCCOCCO2)N(CC)CC	> 200	> 200 µM	–
CCCNC(=O)N(C)C(=O)N1N=C(c2ccccc2)C1c1ccccc1 (centres undefined)	4.57	52.5 µM	–
COc1ccc2nc(C(=O)c3ccccc3)c(C)cc2c1	> 25.7	17.4 µM	–
CC(=O)/C(=C/N1CC(=O)NC1=S)C(=O)Nc1ccccc1C	> 200	> 200 µM	–
Cc1ccc(S(=O)(=O)n2c(-c3ccccc3)c(-c3ccccc3)c3ccccc32)cc1	> 50.1	38.9 µM	–
O=C1CN(CCCN2CCOCC2)CC(=O)N2Cc3ccccc3CN12	> 200	> 200 µM	–
NC(=S)N/N=C1\CCCCc2ccccc21	–	–	inactive
CC(=O)OCCOCn1cnc2c(Cl)nc(Cl)nc21	> 200	7.24 µM	–
COc1ccc(-n2c(=O)n(-c3ccccc3)c(=O)n2-c2ccc(OC)cc2)cc1	> 200	> 200 µM	–
N#CNc1nc(C(=O)Nc2ccc(Cl)cc2)cc(-c2ccccc2)n1	> 355	> 355 µM	–
CC(=S)N/C=C/c1c(C(=O)O)cc([N+](=O)[O-])cc1[N+](=O)[O-]	–	–	inactive
O=C1CSC(=Nc2ccc(F)cc2F)N1Cc1cccs1	> 107	40.7 µM	–
O=C1C(Cl)N(c2ccc(Cl)cc2Cl)C1c1c[nH]c2ccccc12 (centres undefined)	> 70.8	> 70.8 µM	–
O=S(=O)(SC1=NCCN1)c1ccc2ccccc2c1	22.9	29.5 µM	–
O=C1c2c(c3c4ccccc4n4c3c3c2c2ccccc2n3C/C=C\C4)C(=O)N1Cc1ccccc1	–	–	inactive
COC(=O)C12Oc3ccc(-c4ccc5c(c4O)C(=O)C4=CCC(C)C(O)C4(C(=O)OC)O5)c(O)c3C(=O)C1=CCC(C)C2O (centres undefined)	> 12	1.78 µM	–
CCN(CC)CCOC(=O)c1cc2cc3cc(C(=O)OCCN(CC)CC)c(=O)oc3c(C)c2oc1=O	> 200	> 200 µM	–
Cc1c(C)c2ccc(OCC(O)COC(C)C)c(C)c2oc1=O (centres undefined)	> 200	32.4 µM	–
COc1cccc(-c2nc(-c3cnccn3)n(Cc3ccccc3)n2)c1	> 200	> 200 µM	–
CC(=O)c1cc2ccccc2n(O)c1=N	> 200	> 200 µM	–
CCCCCCCCCCCCC(C(=O)O)C(=O)O	> 251	> 251 µM	–

Compound	EC50 [µM]	IC50	outcome
O=c1cc(NNc2ccc(F)cc2)[nH]c(=O)[nH]1	> 200	2.95 µM	–
OC[C@@H]1C[C@H](F)[C@H](n2cnc3c(Cl)ncnc32)O1	> 575	26.3 µM	–
CC(C)(C)c1ccc(O)c(C(O)c2ccccn2)c1 (centres undefined)	> 200	81.3 µM	–
CC(NNC(=S)N1CCCC1)c1cccnn1 (centres undefined)	> 200	0.372 µM	–
CCc1cccc(C(C)C)c1NC(=O)/C(=N\NC(N)=O)C(C(=O)OC)c1cnc2ccccc2n1 (centres undefined)	–	–	inactive
COC(=O)CC(NC(=O)OCc1ccccc1)C(C(C)=O)C(=O)OCc1ccccc1 (centres undefined)	> 75.9	> 75.9 µM	–
Cc1ccc(N2C(=O)C(Cl)=C(Cl)C2=O)cc1	–	–	inactive
CCC12C=CCN3CC[C@@]4(c5cc([C@@]6(C(=O)OC)CC7CN(C[C@]8(CC)OC78)[C@H](CC(C)=O)Cc7c6[nH]c6ccccc76)c(OC)cc5N(C)[C@H]4[C@@](O)(C(=O)OC)[C@@H]1OC(C)=O)[C@H]32 (some centres undefined)	–	–	inactive
C=CCNc1nc2c(s1)c(C)c(O)c1ccccc12	> 200	3.55 µM	–
CC(=O)NNc1nc(C)c(C(=O)NNC(=O)C(=O)Nc2c(Cl)cc([N+](=O)[O-])cc2Cl)s1	> 74.1	> 74.1 µM	–
COc1ccc(/C=C(\C)C=O)cc1	> 204	> 204 µM	–
NC(=O)c1cc(O)c(O)c(O)c1	> 200	17 µM	–
Oc1cc(Br)cc2cc(Cl)cnc12	> 200	1.02 µM	–
Cc1ccc(S(=O)(=O)n2cc(C#N)c(C#N)c2)cc1	> 200	57.5 µM	–
CSc1nc(C)c(Br)c(=O)n1C1OC(COC(C)=O)C(OC(C)=O)C(OC(C)=O)C1OC(C)=O (centres undefined)	> 200	> 200 µM	–
COC(=O)C(Cc1cc(OC)c(OC)c(OC)c1)C(=O)OC	> 302	> 302 µM	–
O=C1C(=O)c2ccccc2C(O)=C1CCCC1CCC2CCCCC2C1 (centres undefined)	> 200	8.32 µM	–
Cn1c2c(c3cc(Cl)cc(Cl)c31)-c1ncncc1CC2	> 61.7	> 61.7 µM	–
Cn1c(N)c(N=O)c(=O)n(C)c1=S	> 200	> 200 µM	–
COc1ccc(C2c3cc4c(cc3OC(N3CCOCC3)C2C)OCO4)c(OC)c1 (centres undefined)	> 200	3.31 µM	–
O=C1c2cc(O)cc(O)c2C(=O)c2c(O)cc(CO)cc21	–	–	inactive
Cc1cc(NC(=O)Nc2ccc(F)cc2)no1	> 200	> 200 µM	–
